A short description of data set [1]: Plasma exposure and PK of compound 63 in mouse plasma (HPLC-MS/MS). Format: in vivo.
The test system of data set [2] is pAMPK. Briefly: pAMPK immunostaining chemiluminescence assay in Beas2B cells. Type of data set: cell-based. Particulars: Homo sapiens, BEAS-2B, 18 h, DMEM no glucose media, compounds 3-34, 36-44, 47-60 tested as HCl salts, read-out: efficacy (minimal compound concentration needed to increase pAMPK by 30%).
The test system of data set [3] is methicillin resistant Staphylococcus aureus (strain ATCC 33591). Briefly: Antimicrobial efficacy against MRSA lung infection in neutropenic BALB/c mice. Type of data set: in vivo. Particulars: 25 mg/kg orally once a day, days -4 to 0; lungs 24 hours after inoculation; p<0.01 compared to vehicle. On the procedure:
Groups of 5-10 female BALB/c mice weighing 20±2 g were used in this study. Animals were rendered immune suppressed by treatment with 250 mg/kg of cyclophosphamide IP at 4 and 2 days before infection (Day −4 and −2). Vehicle 10% DMA (N,N-dimethylacetamide):40% PEG300:50% H2O) and/or test substances were administered on days −4, −3, −2, −1 and 0.
On day 0, immediately following the final dose, animals were inoculated intranasally (0.02 mL/lung) with 1-5×10^6 colony forming units (CFU)/mouse of MRSA (ATCC 33591) after being anaesthetized by etomidate (20 mg/kg dose, IV). In addition, following the final dose, blood was collected at 0, 0.5 h, 1 h, 2 h, 4 h and 24 h from three animals of each group, via facial veins. Terminal blood samples were taken by cardiac puncture. Blood samples were drawn into K2EDTA anti-coagulant coated mini collection tubes. The blood was collected from group 1 after sacrifice as the blank for PK analysis. Samples were stored on ice for no more than one hour then centrifuged at 2500×g for 15 min at 4° C. Plasma (˜50 μL) was stored at −80° C. until analysis.
At 24 hours after inoculation, the animals were humanely euthanized with CO2 asphyxiation, and the lung tissue was harvested from each of the test animals. The tissues were homogenized in 1 mL of PBS. […]

The structures appear in SMILES notation. Where “and” joins values, the source holds several entries; their conditions need not be identical. Equal entries are not always repeated. Where two headings read alike, the source gives them in different places.

As a reminder, the AUC(0-inf) is total exposure, with the tail of the curve extrapolated. A higher AUC(0-inf) goes with high exposure. A word on the AUC(0-t): it is exposure summed from dosing to a finite time, without extrapolation to infinity. Lower therefore signals low exposure. The Cmax is the maximum level reached in the sampled fluid or tissue. For orientation: Tmax means the time at which the peak concentration occurs. For the compound `Cc1ccccc1CN(CCCOc1ccc(C(F)(F)F)cc1)Cc1cccnc1` [compound 63], the “Sample concentration, individual animals” value was 3 ng/mL and 0 ng/mL (2×) in data set [1] (25 mg/kg PO QD x 5, time 0 h, 25 mg/kg); 180 ng/mL and 243 ng/mL and 390 ng/mL in data set [1] (25 mg/kg PO QD x 5, time 0.5 h, 25 mg/kg); 95 ng/mL and 120 ng/mL in data set [1] (25 mg/kg PO QD x 5, time 1 h, 25 mg/kg); 16 ng/mL and 36 ng/mL and 31 ng/mL in data set [1] (25 mg/kg PO QD x 5, time 2 h, 25 mg/kg); 22 ng/mL and 38 ng/mL and 18 ng/mL in data set [1] (25 mg/kg PO QD x 5, time 4 h, 25 mg/kg); 7 ng/mL and 0 ng/mL and 3 ng/mL in data set [1] (25 mg/kg PO QD x 5, time 24 h, 25 mg/kg). This compound returned an AUC(0-inf) in data set [1] (BALB/c, dose PO 25 mg/kg) of 622 ng·h/mL. The same compound showed an AUC(0-t) in data set [1] (BALB/c, dose PO 25 mg/kg) of 593 ng·h/mL. This compound showed a maximum concentration (Cmax) in data set [1] (BALB/c, dose PO 25 mg/kg) of 271 ng/mL. For the same compound, the Tmax in data set [1] (BALB/c, dose PO 25 mg/kg) came out at 30 min. In data set [1] (BALB/c, mouse, plasma, po, 25 mg/kg, 25 mg/kg PO QD x 5, time 0 h, excluded from the PK calculation, read-out: Sample concentration, mean), the concentration at 0 h was 1 ng/mL. In addition, the concentration at 0.5 h in data set [1] (BALB/c, mouse, plasma, po, 25 mg/kg, 25 mg/kg PO QD x 5, time 0.5 h, read-out: Sample concentration, mean) was 271 ng/mL. The concentration at 1 h in data set [1] (BALB/c, mouse, plasma, po, 25 mg/kg, 25 mg/kg PO QD x 5, time 1 h, read-out: Sample concentration, individual animals) is 184 ng/mL; in data set [1] (BALB/c, mouse, plasma, po, 25 mg/kg, 25 mg/kg PO QD x 5, time 1 h, read-out: Sample concentration, mean), 133 ng/mL. The concentration at 2 h in data set [1] (BALB/c, mouse, plasma, po, 25 mg/kg, 25 mg/kg PO QD x 5, time 2 h, read-out: Sample concentration, mean) turned out to be 28 ng/mL. For the same compound, the concentration at 4 h in data set [1] (BALB/c, mouse, plasma, po, 25 mg/kg, 25 mg/kg PO QD x 5, time 4 h, read-out: Sample concentration, mean) worked out at 26 ng/mL. In data set [1] (BALB/c, mouse, plasma, po, 25 mg/kg, 25 mg/kg PO QD x 5, time 24 h, read-out: Sample concentration, mean), the concentration at 24 h was determined as 3 ng/mL. Besides, the AUC/D in data set [1] (dose PO 25 mg/kg) worked out at 25 kg·ng·h/mL/mg. In data set [1] (dose PO 25 mg/kg), this compound had an AUCExtr of 5%. Moreover, the MTR in data set [1] (dose PO 25 mg/kg) was 4.96 h. Besides, the EC (30% increase) in data set [2] was at most 1 µM. In addition, the “clearance of MRSA from the lung (CFU)” value in data set [3] was “cleared MRSA from the lung”.

The values above are taken from patent US12428378B2, “Methods and materials for increasing level of phosphorylated AMPK protein” (University of Pittsburgh—Of the Commonwealth System of …, priority 2019, dated 2025).
